We go through 5 molecules from paper PMC12481029, “Design, synthesis, antiproliferative assessments, and computational studies of new quinolin-2(1H)-ones as dual EGFR/HER-2 inhibitors” (Frontiers in Chemistry, 2025).

“And” between values parts separate entries of the source, which are not always exact repeats. Equal entries are not always repeated. Where two headings read alike, the source gives them in different places.

Series [1] has as its system panel of cancer cell lines. Details: method as in Voigtlaender et al., 2018. To be noted: ref Voigtlaender et al., 2018; read-out: GI50 against a panel of cancer cell lines; cited from earlier work.
For series [2], the system named is breast (MCF-7) cancer cell line. Details: method as in Voigtlaender et al., 2018. To be noted: ref Voigtlaender et al., 2018, cited from earlier work; for IC50: read-out: IC50 against the MCF-7 cell line.
Another series deals with Bcl-2. Put plainly: Bcl-2 level assay. To be noted: MCF-7 cells; for Bcl-2 Fold reduction: versus control.
The test system of the next series is Caspase-9. Put plainly: Caspase-9 activation assay. It counts as cell-based, human. To be noted: MCF-7 cells; for Caspase-9 Fold change: versus control. The procedure:
To elucidate the apoptotic mechanism of compounds 3d and 5a, whether via the intrinsic or extrinsic pathway, their impact on caspase-8 and caspase-9 was evaluated.
RPMI 1640 with 10% FBS was used to assist the cells grow at 37 °C, and then the cells were treated with the compounds being studied to check the activity of caspase-3, -8, and -9 ([Hisham et al., 2019]). Refer to Supplementary Appendix A.
Cells were obtained from American Type Culture Collection, cells were grown in RPMI 1640 containing 10% fetal bovine serum at 37°C, stimulated with the compounds to be tested for caspase8, and lysed with Cell Extraction Buffer. This lysate was diluted in Standard Diluent Buffer over the range of the assay and measured for human active caspase-8 content. (Cells are Plated in a density of 1.2 – 1.8 × 10,000 cells/well in a volume of 100µl complete growth medium + 100 ul of the tested compound per well in a 96-well plate for 24 hours before the enzyme assay for Tubulin.). The absorbance of each microwell was read on a spectro-photometer at 450 nm. A standard curve is prepared from 7human Caspase-8 standard dilutions and human Caspase-8 concentration determined.

In another series the test system is Bax. Put plainly: Bax level assay. To be noted: MCF-7 cells; for Bax Fold change: versus control.
The next series relates to Cytochrome C. In words: Cytochrome C assay. To be noted: MCF-7 cells; for Cytochrome C Fold change: versus control.
The next series deals with Caspase-3. Put plainly: Caspase-3 activation assay. It is filed as cell-based, human. To be noted: MCF-7 cells; for Caspase-3 Fold change: versus control. The procedure:
(§1) Refer to Supplementary Appendix A.
Allow all reagents to reach room temperature before use. Gently mix all liquid reagents prior to use. Determine the number of 8-well strips needed for the assay. Insert these in the frame(s) for current use. Add 100 μl of the Standard Diluent Buffer to the zero standard wells. Well(s) reserved for chromogen blank should be left empty. Add 100 μl of standards and controls or diluted samples to the appropriate microtiter wells. The sample dilution chosen should be optimized for each experimental system. Tap gently on side of plate to mix. Cover wells with plate cover and incubate for 2 hours at room temperature. Thoroughly aspirate or decant solution from wells and discard the liquid, Wash wells 4 times. […] Tap gently on the side of the plate to mix. Cover plate with plate cover and incubate for 1 hour at room temperature. Thoroughly aspirate or decant solution from wells and discard the liquid, Wash wells 4 times. Add 100 μl Anti-Rabbit IgG HRP Working Solution to each well except the chromogen blank(s). Prepare the working dilution as described in Preparing IgG HRP. Cover wells with the plate cover and incubate for 30 minutes at room temperature. Thoroughly aspirate or decant solution from wells and discard the liquid. Wash wells 4 times. Add 100 μl of Stabilized Chromogen to each well. The liquid in the wells will begin to turn blue. Incubate for 30 minutes at room temperature and in the dark. The incubation time for chromogen substrate is often determined by the microtiter plate reader used. Many plate readers have the capacity to record a maximum optical density (O.D.) of 2.0. The O.D. values should be monitored, and the substrate reaction stopped before the O.D. of the positive wells exceeds the limits of the instrument. The O.D. values at 450 nm can only be read after the Stop Solution has been added to each well. […] Add 100 μl of Stop Solution to each well. Tap side of plate gently to mix. The solution in the wells should change from blue to yellow. Read the absorbance of each well at 450 nm having blanked the plate reader against a chromogen blank composed of 100 μl each of Stabilized Chromogen and Stop Solution. Read the plate within 2 hours after adding the Stop Solution. Use a curve fitting software to generate the standard curve. […] Read the concentrations for unknown samples and controls from the standard curve. Multiply value(s) obtained for sample(s) by the appropriate dilution factor to correct for the dilution in step 3.

For a further series, the system named is Caspase-8. Put plainly: Caspase-8 activation assay. It is filed as cell-based, human. To be noted: MCF-7 cells; for Caspase-8 Fold change: versus control. How it is done: as §1
(Cells are Plated in a density of 1.2 – 1.8 × 10,000 cells/well in a volume of 100µl complete growth medium + 100 ul of the tested compound per well in a 96-well plate for 24 hours before the enzyme assay for Tubulin.). The absorbance of each microwell was read on a spectro-photometer at 450 nm. A standard curve is prepared from 7human Caspase-8 standard dilutions and human Caspase-8 concentration determined.

Series [3] deals with colon (HT-29) cancer cell line. Put plainly: Antiproliferative assay, HT-29. To be noted: Homo sapiens, read-out: Antiproliferative activity IC50 ± SEM, HT-29. It is filed as cell-based.
Series [4] is described as follows: Cell viability assay (MTT), normal mammary cells. To be noted: human, MCF-10A normal mammary epithelial cells.
Procedure: (§5) MTT assay was performed to investigate the effect of the synthesized compounds on mammary epithelial cells (MCF-10A). The cells were propagated in medium consisting of Ham's F-12 medium/ Dulbecco's modified Eagle's medium (DMEM) (1:1) supplemented with 10% foetal calf serum, 2 mM glutamine, insulin (10 μg/mL), hydrocortisone (500 ng/mL) and epidermal growth factor (20 ng/mL). Trypsin ethylenediamine tetra acetic acid (EDTA) was used to passage the cells after every 2-3 days. 96-well flat-bottomed cell culture plates were used to seed the cells at a density of 10^4 cells mL^-1. The medium was aspirated from all the wells of culture plates after 24 h followed by the addition of synthesized compounds (in 200 μL medium to yield a final concentration of 0.1% (v/v) dimethyl sulfoxide) into individual wells of the plates. Four wells were designated to a single compound. The plates were allowed to incubate at 37°C for 96 h. Afterwards, the medium was aspirated and 3-[4,5-dimethylthiazol-2-yl]-2,5-diphenyltetrazolium bromide (MTT) (0.4 mg/mL) in medium was added to each well and subsequently incubated for 3 h. The medium was aspirated and 150 μL dimethyl sulfoxide (DMSO) was added to each well. The plates were vortexed followed by the measurement of absorbance at 540 nm on a microplate reader.
Series [5] has as its system pancreatic (Panc-1) cancer cell line. In words: Antiproliferative assay, Panc-1. It counts as cell-based. To be noted: Homo sapiens, read-out: Antiproliferative activity IC50 ± SEM, Panc-1. From the text: (§2) The MTT assay ([Al-Wahaibi et al., 2022]; [Mahmoud et al., 2023]) was employed to assess the antiproliferative effects of compounds 3a-h and 5a-g on four human cancer cell lines: colon (HT-29) cancer, pancreatic (Panc-1) cancer, lung (A-549) cancer, and breast (MCF-7) cancer cell lines. Erlotinib was applied as a reference. Table 1 presents the median inhibitory concentration (IC50) and average IC50 (GI50) values for each compound evaluated on the four cancer cell lines.
(§3) Compounds 3a-h and 5a-g were tested for their antiproliferative activities on four human cancer cell lines: colon (HT-29), pancreatic (Panc-1), lung (A-549), and breast (MCF-7) using the MTT assay ([Al-Wahaibi et al., 2022]; [Mahmoud et al., 2023]). Erlotinib was applied as a reference.
(§4) To explore the antiproliferative potential of compounds propidium iodide fluorescence assay was performed using different cell lines such as Panc-1 (pancreas cancer cell line), MCF-7 (breast cancer cell line), HT-29 (colon cancer cell line) and A-549 (epithelial cancer cell line), respectively. To calculate the total nuclear DNA, a fluorescent dye (propidium iodide, PI) is used which can attach to the DNA, thus offering a quick and precise technique. PI cannot pass through the cell membrane and its signal intensity can be considered as directly proportional to quantity of cellular DNA. Cells whose cell membranes are damaged or have changed permeability are counted as dead ones. The assay was performed by seeding the cells of different cell lines at a density of 3000-7500 cells/well (in 200μl medium) in culture plates followed by incubation for 24h at 37 °C in humidified 5%CO2/95% air atmospheric conditions. The medium was removed; the compounds were added to the plates at 10 μM concentrations (in 0.1% DMSO) in triplicates, followed by incubation for 48h. DMSO (0.1%) was used as control. After incubation, medium was removed followed by the addition of PI (25 μl, 50μg/mL in water/medium) to each well of the plates. At -80 °C, the plates were allowed to freeze for 24 h, followed by thawing at 25 °C. A fluorometer (Polar-Star BMG Tech) was used to record the readings at excitation and emission wavelengths of 530 and 620 nm for each well. The percentage cytotoxicity of compounds was calculated using the following formula: […]

Series [6] deals with four human cancer cell lines (A-549, MCF-7, Panc-1, HT-29). In words: Antiproliferative assay, average over four cancer cell lines. It is filed as cell-based. To be noted: for GI50: Homo sapiens, average IC50 over the four cancer cell lines.
The test system of series [7] is lung (A-549) cancer cell line. In words: Antiproliferative assay, A-549. To be noted: Homo sapiens, A549; read-out: Antiproliferative activity IC50 ± SEM, A-549. It is filed as cell-based.
Text: as §2, §3, §4

A further series concerns the target HER-2 (Homo sapiens, UniProt P04626). In words: HER-2 inhibitory assay (ADP-Glo kinase assay). On the technique in general: ADP-Glo turns the ADP formed in a reaction into a luminescent signal.
The target of another series is EGFR (Homo sapiens, UniProt P00533). Put plainly: EGFR inhibitory assay (EGFR-TK test). To be noted: EGFR inhibition IC50 ± SEM.
Sequence of EGFR (P00533 669-1210): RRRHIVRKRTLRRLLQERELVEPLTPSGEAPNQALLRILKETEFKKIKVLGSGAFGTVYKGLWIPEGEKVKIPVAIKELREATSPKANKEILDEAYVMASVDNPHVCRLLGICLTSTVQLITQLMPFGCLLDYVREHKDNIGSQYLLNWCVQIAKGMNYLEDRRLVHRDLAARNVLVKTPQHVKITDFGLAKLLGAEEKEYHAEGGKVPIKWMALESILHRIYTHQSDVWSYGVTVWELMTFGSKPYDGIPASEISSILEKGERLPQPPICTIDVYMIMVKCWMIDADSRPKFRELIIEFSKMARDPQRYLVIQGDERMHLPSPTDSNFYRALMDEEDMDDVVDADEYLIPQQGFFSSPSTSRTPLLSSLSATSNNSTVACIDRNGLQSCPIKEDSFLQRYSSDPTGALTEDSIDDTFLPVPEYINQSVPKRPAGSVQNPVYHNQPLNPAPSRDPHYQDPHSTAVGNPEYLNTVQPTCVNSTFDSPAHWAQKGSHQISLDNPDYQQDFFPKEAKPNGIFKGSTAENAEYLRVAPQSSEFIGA
The subject of series [8] is breast (MCF-7) cancer cell line. In words: Antiproliferative assay, MCF-7. To be noted: Homo sapiens, MCF7; read-out: Antiproliferative activity IC50 ± SEM, MCF-7. It counts as cell-based.
Text: as §2, §3, §4

Another series is described as follows: in vitro. To be noted: human.
Series [9] concerns MCF-7 human breast cancer cell line. Put plainly: Flow cytometric cell cycle analysis. It is filed as cell-based.

Sequence of HER-2 (P04626 676-1255 limits assumed): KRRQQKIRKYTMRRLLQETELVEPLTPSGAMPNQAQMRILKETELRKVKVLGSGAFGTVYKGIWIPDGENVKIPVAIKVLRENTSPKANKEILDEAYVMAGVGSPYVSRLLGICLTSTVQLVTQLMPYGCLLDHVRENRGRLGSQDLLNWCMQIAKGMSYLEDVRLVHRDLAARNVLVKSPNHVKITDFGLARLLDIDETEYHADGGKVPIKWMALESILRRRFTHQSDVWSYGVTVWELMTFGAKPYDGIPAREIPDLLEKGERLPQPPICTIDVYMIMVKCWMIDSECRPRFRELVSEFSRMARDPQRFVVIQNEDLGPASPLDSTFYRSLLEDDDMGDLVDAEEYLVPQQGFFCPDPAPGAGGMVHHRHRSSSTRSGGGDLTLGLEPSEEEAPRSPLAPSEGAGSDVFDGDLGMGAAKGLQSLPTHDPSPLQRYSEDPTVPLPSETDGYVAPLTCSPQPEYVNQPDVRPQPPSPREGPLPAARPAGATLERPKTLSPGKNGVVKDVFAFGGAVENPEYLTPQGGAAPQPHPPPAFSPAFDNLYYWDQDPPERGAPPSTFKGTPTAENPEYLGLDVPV
Procedure for Bax: Bring all reagents, except the human Bax-α Standard, to room temperature for at least 30 minutes prior to opening. The human Bax-α Standard solution should not be left at room temperature for more than 10 minutes. All standards, controls and samples should be run in duplicate. Refer to the Assay Layout Sheet to determine the number of wells to be used and put any remaining wells with the desiccant back into the pouch and seal the ziploc. Store unused wells at 4 °C. Pipet 100 μL of Assay Buffer into the S0 (0 pg/mL standard) wells. Pipet 100 μL of Standards #1 through #6 into the appropriate wells. Pipet 100 μL of the Samples into the appropriate wells. Tap the plate gently to mix the contents. Seal the plate and incubate at room temperature on a plate shaker for 1 hour at ~500 rpm. Empty the contents of the wells and wash by adding 400 μL of wash solution to every well. Repeat the wash 4 more times for a total of 5 washes. After the final wash, empty or aspirate the wells and firmly tap the plate on a lint free paper towel to remove any remaining wash buffer. Pipet 100 μL of yellow Antibody into each well, except the Blank. Seal the plate and incubate at room temperature on a plate shaker for 1 hour at ~500 rpm. Empty the contents of the wells and wash by adding 400 μL of wash solution to every well. Repeat the wash 4 more times for a total of 5 washes. After the final wash, empty or aspirate the wells and firmly tap the plate on a lint free paper towel to remove any remaining wash buffer. Add 100 μL of blue Conjugate to each well, except the Blank. Seal the plate and incubate at room temperature on a plate shaker for 30 minutes at ~500 rpm. Empty the contents of the wells and wash by adding 400 μL of wash solution to every well. Repeat the wash 4 more times for a total of 5 washes. After the final wash, empty or aspirate the wells and firmly tap the plate on a lint free paper towel to remove any remaining wash buffer. Pipet 100 μL of Substrate Solution into each well. Incubate for 30 minutes at room temperature on a plate shaker at ~500 rpm. Pipet 100 μL Stop Solution to each well. Blank the plate reader against the Blank wells, read the optical density at 450 nm. Calculate the average net Optical Density (OD) bound for each standard and sample by subtracting the average Blank OD from the average OD for each standard and sample. Using linear graph paper, plot the Average Net OD for each standard versus Bax concentration in each standard. Approximate a straight line through the points. The concentration of Bax in the unknowns can be determined by interpolation.
Procedure for Bcl-2: Mix all reagents thoroughly without foaming before use. Wash the microwells twice with approximately 300 μL Wash Buffer per well with thorough aspiration of microwell contents between washes. Take caution not to scratch the surface of the microwells. After the last wash, empty the wells and tap microwell strips on absorbent pad or paper towel to remove excess Wash Buffer. Use the microwell strips immediately after washing or place upside down on a wet absorbent paper for not longer than 15 minutes. […] Add 100 μL of Sample Diluent in duplicate to all standard wells and to the blank wells. […] Add 100 μL of Sample Diluent, in duplicate, to the blank wells. Add 80 μL of Sample Diluent, in duplicate, to the sample wells. Add 20 μL of each Sample, in duplicate, to the designated wells. Add 50 μL of diluted biotin-conjugate to all wells, including the blank wells. Cover with a plate cover and incubate at room temperature, on a microplate shaker at 100 rpm if available, for 2 hours. Remove plate cover and empty the wells. Wash microwell strips 3 times as described in step 2. Add 100 μL of diluted Streptavidin-HRP to all wells, including the blank wells. Cover with a plate cover and incubate at room temperature, on a microplate shaker at 100 rpm if available, for 1 hour. Remove plate cover and empty the wells. Wash microwell strips 3 times as described in step 2. […] Pipette 100 μl of mixed TMB Substrate Solution to all wells, including the blanks. Incubate the microwell strips at room temperature (18° to 25°C) for about 15 minutes, if available on a rotator set at 100 rpm. Avoid direct exposure to intense light. The point, at which the substrate reaction is stopped, is often determined by the ELISA reader. Many ELISA readers record absorbance only up to 2.0 O.D. Therefore, the color development within individual microwells must be watched by the person running the assay and the substrate reaction stopped before positive wells are no longer properly detectable. Stop the enzyme reaction by quickly pipetting 100 μL of Stop Solution into each well, including the blank wells. It is important that the Stop Solution is spread quickly and uniformly throughout the microwells to completely inactivate the enzyme. Results must be read immediately after the Stop Solution is added or within one hour if the microwell strips are stored at 2 - 8°C in the dark. Read absorbance of each microwell on a spectrophotometer using 450 nm as the primary wavelength.
Procedure for Cytochrome C: This lysate was diluted in Standard Diluent Buffer over the range of the assay and measured for cytochrome C content. (Cells are Plated in cells/well in a volume of 100µl complete growth medium + 100 µl of the tested compound + 50 µl of 1X biotin conjugated antibody+ 100 µl of 1X streptavidin-HRP+ 100 µL TMB substrate solution of per well in a 96-well plate for 24 hours before assay).
Procedure for EGFR: 5ʹ upstream to the EGFR sequence comprised a sequence that encoded (His)6. Sf-9 cells were infected for 72h for protein expression. The pellets of Sf-9 cells were solubilized in a buffer containing sodium vanadate (100 μM), aprotinin (10 μg/mL), triton (1%), HEPES buffer(50mM), ammonium molybdate (10 μM), benzamidine HCl (16 μg/mL), NaCl (10 mM),leupeptin (10 μg/mL) and pepstatin (10 μg/mL) at 0°C for 20 min at pH 7.4, followed by centrifugation for 20 min. To eliminate the nonspecifically bound material, a Ni-NTA super flow packed column was used to pass through and wash the crude extract supernatant first with 10mM and then with 100 mM imidazole. Histidine-linked proteins were first eluted with 250 and then with 500 mM imidazole subsequent to dialysis against NaCl (50 mM), HEPES (20 mM), glycerol (10%) and 1 μg/mL each of aprotinin, leupeptin and pepstatin for 120 min. The purification was performed either at 4 °C or on ice. To record autophosphorylation level, EGFR kinase assay was carried out on the basis of DELFIA/Time-Resolved Fluorometry. […] Each compound (10 μL) was incubated with recombinant enzyme (10 μL, 5 ng for EGFR, 1:80 dilution in 100 mM HEPES) for 10 min at 25 °C, subsequent to the addition of 5X buffer (10 μL, containing 2 mM MnCl2, 100 μM Na3VO4, 20 mM HEPES and 1 mM DTT) and ATP-MgCl2 (20 μL, containing 0.1 mM ATP and 50 mM MgCl2) and incubation for 1h. The negative and positive controls were included in each plate by the incubation of enzyme either with or without ATP-MgCl2. The liquid was removed after incubation and the plates were washed thrice using a wash buffer. The Europium-tagged antiphosphotyrosine antibody (75 μL, 400 ng) was added to each well followed by incubation of 1h and then washing of the plates using buffer. […] The autophosphorylation percentage inhibition by compounds was calculated using the following equation:
The majority of signals detected by antiphosphotyrosine antibody were from EGFR because the enzyme preparation contained low impurities.
Procedure for HER-2: The ADP-Glo™ Kinase Assay was used for kinase activity detection, related kinases information: HER-2 (ab60866, Abcam), with a concentration of 100 ng/mL. Target compounds were dissolved in DMSO to obtain drug solutions with different concentrations, and the compound concentrations in the final reaction system (100 μL) were 1 nM, 20 nM, 40 nM, 80 nM, and 100 nM, respectively. 10μL of the solution containing compounds was transferred to a 96-well plate, then added 40 μL of 1 × kinase buffer (50 mM HEPES, pH 7.5) to each well, and mixed the mixture in the 96-well plate on a shaker for 10 min. Next, added 25 μL of ADP-Glo™ reagent to the above wells, mixed and incubated for another 40 min. Distributed 10 μL kinase detection reagent to the reaction and incubated for 30 min. Finally, the full-wavelength microplate reader was used to record the OD value.
Procedure for in vitro: as §5

Usually GI50 stands for the concentration giving 50% growth inhibition. The term IC50 denotes the midpoint of a concentration-inhibition curve. Take `O=c1[nH]c2ccccc2c(O)c1/C=N/c1ccc(NS(=O)(=O)c2ncccn2)cc1` [Compound III]: the 50% growth inhibitory concentration (GI50) in series [1] is 25 nM. Moreover, in series [2] (ratio of IC50 values), the “Times more potent than erlotinib, MCF-7” value is 1.8. Also, in [2], the IC50 is 23 nM.

`CN[C@@H]1C[C@H]2O[C@@](C)([C@@H]1OC)n1c3ccccc3c3c4c(c5c6ccccc6n2c5c31)C(=O)NC4` [Staurosporine, reference compound]: in the series on Bcl-2, the “Bcl-2 Conc” value is 1.00 ng/mL. Moreover, the “Caspase-9 Conc” value in the series on Caspase-9 is 20 ± 1 ng/mL. The results for the “Bax Conc” value in the series with Bax and in the series with Bax (listed as staurosporine) were 290 ± 2 pg/mL and 290 pg/mL, respectively. Also, the “Cytochrome C Conc” value in the series with Cytochrome C is 0.50 ng/mL.

Broadly, the viability is a read-out of living cells in per cent, often relative to untreated cells. Read a low viability as a greater loss of cells. For `Cc1ccc(S(=O)(=O)N/N=C/c2c(O)c3ccccc3[nH]c2=O)cc1` [Compound 3d, (E)-N'-((4-hydroxy-2-oxo-1,2-dihydroquinolin-3-yl)methylene)-4-methyl benzenesulfonohydrazide], in the series with Bcl-2, the “Bcl-2 Conc” value stood at 0.80 ng/mL and the “Bcl-2 Fold reduction” value turned out to be 6. Besides, in the series on Caspase-9, the “Caspase-9 Conc” value is listed as 21 ± 3 ng/mL and the “Caspase-9 Fold change” value is 21. Besides, in the series with Caspase-3, the “Caspase-3 Conc” value is on record as 515 ± 5 pg/mL and the “Caspase-3 Fold change” value was determined as 8.0. In the series on Bax, the “Bax Conc” value is 310 pg/mL and 310 ± 2 pg/mL; the “Bax Fold change” value is reported as 34. In addition, in the series with Caspase-8, the “Caspase-8 Conc” value stood at 2.10 ± 0.20 ng/mL and the “Caspase-8 Fold change” value stood at 23. The IC50 in series [3] came to 42 ± 4 nM. This molecule also gave a viability at 4 days, 50 µM in series [4] of 91%. In addition, in series [5], the half-inhibitory concentration (IC50) was found to be 43 ± 4 nM. The molecule also yielded a 50% growth inhibitory concentration (GI50) in series [6] of 41 nM. In addition, in series [6] (ratio to erlotinib GI50 = […] nM), the “Fold less effective than erlotinib (GI50)” value worked out at 1.3. Also, the IC50 in [7] stood at 40 ± 3 nM. Moreover, the 50% inhibitory concentration (IC50) at HER-2 came to 38 ± 2 nM. On EGFR, this molecule came in with an IC50 of 91 ± 6 nM. Also, in the series with Cytochrome C, the “Cytochrome C Conc” value is listed as 0.65 ng/mL and the “Cytochrome C Fold change” value was found to be 13. Besides, the half-inhibitory concentration (IC50) in [8] came out at 37 ± 3 nM.

In the case of `O=c1[nH]c2ccccc2c(O)c1/C=N/Nc1ccc([N+](=O)[O-])cc1[N+](=O)[O-]` [Compound 5a, (E)-3-((2-(2,4-Dinitrophenyl)hydrazono)methyl)-4-hydroxyquinolin-2(1H)-one], in the series with Bcl-2, the “Bcl-2 Conc” value is on record as 0.70 ng/mL and the “Bcl-2 Fold reduction” value was 7. For the same molecule, in the series with Caspase-9, the “Caspase-9 Conc” value is given as 24 ± 1 ng/mL and the “Caspase-9 Fold change” value came to 24. In the series on Caspase-3, the “Caspase-3 Conc” value is recorded as 570 ± 5 pg/mL and the “Caspase-3 Fold change” value is 9.0. Also, in the series with Bax, the “Bax Conc” value is 320 pg/mL and 320 ± 2 pg/mL; the “Bax Fold change” value is 35. In the series on Caspase-8, the “Caspase-8 Conc” value is given as 2.65 ± 0.25 ng/mL and the “Caspase-8 Fold change” value is on record as 29. Also, the IC50 in series [3] stood at 38 ± 3 nM. Further, the IC50 in series [5] came to 38 ± 3 nM. This molecule also had a viability at 4 days, 50 µM in “in vitro” of 88%. Further, in series [6], the “Fold less effective than erlotinib (GI50)” value is recorded as 1.2 and the GI50 is 37 nM. In series [7], the half-maximal inhibitory concentration (IC50) was determined as 36 ± 3 nM. This molecule also displayed an IC50 at HER-2 of 33 ± 2 nM. Moreover, the “Times less potent than lapatinib, HER-2 inhibition” value on HER-2 (ratio to lapatinib IC50) is on record as 1.3. Also, inhibition at EGFR was half-maximal at 87 ± 5 nM (IC50). Moreover, in [9], the “Percentage of cells in G2/M phase” value worked out at 1.94%. Further, the “Percentage of cells in S phase” value in series [9] (control 26.82%) worked out at 15.65%. In the series on Cytochrome C, the “Cytochrome C Conc” value stood at 0.85 ng/mL and the “Cytochrome C Fold change” value was 17. Also, the 50% inhibitory concentration (IC50) in series [8] amounted to 34 ± 3 nM.

Consider `C#Cc1cccc(Nc2ncnc3cc(OCCOC)c(OCCOC)cc23)c1` [Erlotinib, reference compound], for which the IC50 in series [3] was 30 ± 3 nM; in series [5] it was 30 ± 3 nM; in [7] it was 30 ± 3 nM; in series [8], 40 ± 3 nM; in [2], 40 nM.
